{"source": "patent US9121022B2", "about": "“Method for controlling herbicide-resistant plants” (priority 2010, dated 2015)", "key": {"[1]": {"test_system": "endogenous Nicotiana benthamiana Argonaute-1 (AGO1) gene", "experiment": "AGO1 anti-sense polynucleotides with or without PDS anti-sense polynucleotide, systemic bleaching (Example 33)", "format": "in vivo", "details": "PDS 25 nanomoles; AGO1 50 nanomoles of each of 14 polynucleotides; applied on separate leaves", "from_the_text": "A second set of experiments was designed to investigate the effects of silencing a component of the endogenous RNAi silencing pathway in a plant. Argonaute (AGO) proteins are components of the RNA-induced silencing complex (RISC) which binds small RNAs in the RNAi silencing process. Suppression of Argonaute would be expected to reduce the observed phenotypic effect caused by an RNAi silencing process. AGO1 anti-sense polynucleotides with the sequences […] (HL510, SEQ ID NO:300), […] (HL511, SEQ ID NO:301), […] (HL512, SEQ ID NO:302), […] (HL513, SEQ ID NO:303), […] (HL514, SEQ ID NO:304), […] (HL515, SEQ ID NO:305), […] (HL516, SEQ ID NO:306), […] (HL517, SEQ ID NO:307), […] (HL518, SEQ ID NO:308), […] (HL519, SEQ ID NO:309), […] (HL520, SEQ ID NO:310), […] (HL521, SEQ ID NO:311), […] (HL522, SEQ ID NO:312), […] (HL523, SEQ ID NO:313) were designed for the endogenous Nicotiana benthamiana Argonaute-1 (AGO1) gene, based on two Nicotiana benthamiana AGO1-2 partial cDNA sequences, • […] […] […] […] […] […] […] […] […] […] […] […] […] […] […] […] […] […] […] […] […] […] […] […] […] […] […] […] […] […] […] […] […] […] […] […] […] […] […] […] […] […] […] GC (SEQ ID NO:314) and • […] […] […] […] […] […] […] […] […] […] […] […] […] […] […] […] […] […] […] […] […] […] […] […] […] […] […] […] […] […] […] […] […] […] […] […] […] […] […] […] […] […] […] […] […] […] […] […] (SEQ ID NO:315).\nNicotiana benthamiana plants were treated using a procedure similar to that described in Example 12. […]"}, "[2]": {"test_system": "Nicotiana benthamiana phytoene desaturase", "experiment": "topical PDS oligonucleotides/polynucleotides on tobacco, bleaching and chlorophyll (Example 10)", "format": "in vivo", "details": "another assay", "from_the_text": "The target gene used was a Nicotiana benthamiana phytoene desaturase (SEQ ID NO:2), shown in FIG. 10; the segment consisting of nucleotides 421-1120 of SEQ ID NO:2 (underlined text in FIG. 10) was used to design a 700-mer dsRNA polynucleotide (“PDS 700-mer”) and the segment consisting of nucleotides 914-1113 of SEQ ID NO:2 (bolded underlined text in FIG. 10) was used to design a 200-mer dsRNA polynucleotide (“PDS 200-mer”). FIG. 11 schematically depicts the location of the sequences of these oligonucleotides and polynucleotides in relation to the […] (SEQ ID NO:2) sequence. Non-plant sequences obtained from corn rootworm (“CRW”), SEQ ID NOs:27, 28, 29, and 30 were used as non-homologous controls. Some of the polynucleotides included a T7 promoter sequence (indicated by lower-case text in Table 3) that is a promoter recognized by a bacteriophage T7 RNA polymerase.\nThe following procedure was used for all assays described in this example. Four-week old Nicotiana benthamiana plants were used in all assays. Plants were treated with 0.1% SILWET L-77® brand surfactant solution freshly made with ddH2O. Two fully expanded leaves per plant (one cotyledon, one true leaf) were dipped into the SILWET L-77® brand surfactant solution for a few seconds, and allowed to dry for 15-30 minutes before application of the polynucleotide composition. Final concentration for each oligonucleotide or polynucleotide was 25 microM (in 0.01% SILWET L-77® brand surfactant, 5 mM sodium phosphate buffer, pH 6.8) unless otherwise stated. 20 microliters of the solution was applied to the top surface of each of the two pre-treated leaves to provide a total of 40 microliters (1 nmol oligonucleotide or polynucleotide) for each plant. Leaf bleaching was observed 3 days post treatment.\nFIG. 13 illustrates phenotypes observed at day 12 after treatment in another assay of the effect from twelve combinations of polynucleotides or oligonucleotides (see Table 4). Table 4 also lists observations of visible bleaching of the plants at day 5 after treatment and the results of chlorophyll measurements taken at days 7 and 12 after treatment. Chlorophyll measurements are an indication of suppression of the target gene phytoene desaturase, and measurements were taken at 6 spots on the apical area, focussing on visibly bleached leaves or (in plants without visible bleaching) on leaves in equivalent locations on the plants; lower chlorophyll measurement values indicate suppression of phytoene desaturase."}}}
{"sequence": "CATCTCCTTTAATTGTACTGC (DNA, backbone not given here) [PDS 21-mer anti-sense ssDNA]", "values": [{"measurement": "systemic bleaching / difference to buffer", "setting": "[1]", "value": "displayed systemic bleaching"}, {"measurement": "bleaching of apical leaves (FIG. 15)", "setting": "[2]", "value": "apical leaf bleaching observed"}]}
